Experimental data published in patent publication US20080090278A1, “METHOD FOR ENHANCING STABILITY OF A COMPOSITION COMPRISING SOLUBLE GLUCOSE DEHYDROGENASE (GDH)” (TOYO BOSEKI KABUSHIKI KAISHA, priority 2006, published 2008).

How the values were obtained:
Type in all cases: physicochemical
[1] = tested on: recombinant FAD-GDH (rAO-FAD-GDH) derived from Aspergillus oryzae; experiment: Thermal stabilization effect of stabilizing agents on rAO-FAD-GDH in solution (Examples 3-6)
[2] = tested on: recombinant FAD-GDH (rAT-FAD-GDH) derived from Aspergillus terreus; experiment: Thermal stabilization effect of stabilizing agents on rAT-FAD-GDH in solution (Example 9); settings: for Residual activity ratio (%) / GLD activity value (U/ml) 50° C., 15 min: Table 10, buffer 50 mM K-PB, stabilizer at each final concentration described in Table 1; for Residual activity ratio (%): 50° C., 15 min versus 4° C.; for thermal stabilization effect on FAD-GDH (in words): rAT-FAD-GDH, 50° C. for 15 minutes, Example 9
Procedure: (§1) The reaction reagent (3 mL) is preliminarily heated at 37° C. for 5 minutes. The GDH solution (0.1 mL) is added and gently mixed, subsequently the change of absorbance at 600 nm is recorded for 5 minutes using the spectrophotometer controlled to 37° C. using water as the control, and the change of absorbance per one minute (ΔODTEST) is calculated from the linear portion of the record. The solvent in which GDH will be dissolved in place of the blinded GDH solution is added to the reagent mixture, and the change of absorbance (ΔODBLANK) per one minute is measured. The GDH activity is calculated from these values according to the following formula. One unit (U) in the GDH activity is defined as the amount of the enzyme which reduces […] DCPIP for one minute in the presence of 200 mM D-glucose.
Two tubes in which each stabilizing agent described in Table 1 had been added at each final concentration to 0.9 mL of this enzyme solution to make the total volume 1.0 mL were prepared.
(§2) In two tubes, one tube was stored at 4° C. and another tube was treated at 50° C. for 15 minutes. Then, the FAD-GDH activity in each tube was measured. The enzyme activity in the tube stored at 4° C. was made 100, and comparing with it, the activity value after being treated at 50° C. for 15 minutes was calculated as the residual activity ratio (%).

[3] = tested on: recombinant FAD-GDH (rAO-FAD-GDH) derived from Aspergillus oryzae; experiment: Thermal stabilization effect of stabilizing agents on rAO-FAD-GDH in solution (Examples 3-6); settings: for thermal stabilization effect on FAD-GDH (in words): rAO-FAD-GDH, 50° C. for 15 minutes, Example 3; for Residual activity ratio (%) after treatment at 50° C., 15 min: stabilizer final concentration 1%, rAO-FAD-GDH about 2 U/mL, 50 mM potassium phosphate buffer pH 5.5, 0.1% Triton X-100, 4° C. sample = 100
Procedure: Enhancement of the thermal stability referred to herein means increasing of a residual ratio (%) of the GDH enzyme kept after giving the treatment with heat at a certain temperature for a certain time period to the composition comprising the GDH enzyme. In the present invention, the activity in the sample stored at 4° C. which is nearly completely kept is made 100%, this is compared with the activity in the GDH solution after giving the treatment with heat at a certain-temperature for a certain time period, and the residual ratio of the enzyme is calculated.
In the method for measuring the activity described in the method for measuring the GDH enzyme activity described later, an activity value (a) of GDH in the solution stored at 4° C. and an activity value (b) of GDH after giving the treatment with heat at a certain temperature for a certain time period were measured, a relative value[(b)/(a)×100] when the activity value (a) was made 100 was calculated. This relative value was made the residual ratio (%). Comparing the presence with the absence of the added compound, when the residual ratio was increased by the addition of the compound, it was determined that the thermal stability was enhanced.
In the present invention, the activity of FAD-dependent GDH is measured as follows.
The reaction-reagent is made by mixing 15.6 mL of the PIPES buffer, 0.2 mL of the DCPIP solution and 4 mL of the D-glucose solution.
as §1, with “D-glucose. Activity (U/mL)=[−(ΔODTEST−ΔODBLANK)×3.0×dilution scale]/(16.3×0.1×1.0) In the above formula, 3.0 represents a liquid amount (mL) of the reaction reagent+the enzyme solution, 16.3 represents a millimolar molecular absorbance coefficient (cm^2/μmol) in the condition for measuring this enzyme, 0.1 represents the liquid amount of the enzyme solution (mL) and 1.0 represents a light path length (cm) of the cell.” for “D-glucose.”
The study was performed in accordance with the method for measuring the FAD-GDH activity in Test Example 1 described above.
First, 50 mL of an enzyme solution obtained by dissolving the recombinant FAD-GDH (rAO-FAD-GDH)-derived from Aspergillus oryzae obtained in Example 1 at about 2 U/mL in an enzyme dilution solution (50 mM potassium phosphate buffer, pH 5.5, 0.1% Triton X-100) was prepared. Two tubes in which each stabilizing agent described in Table 1 had been added at each final concentration to 0.9 mL of this enzyme solution to make the total volume 1.0 mL were prepared.
as §2, with “stored at […] and” for “stored at 4° C. and”
The method was in accordance with Example 3 described above.
The methods were in accordance with Example 3 above.

[4] = tested on: recombinant FAD-GDH preparation (rAO-FAD-GDH) derived from Aspergillus oryzae; experiment: Storage stability of freeze-dried (powdered) rAO-FAD-GDH with stabilizing agents (Example 8)
Procedure: as §1, with “D-glucose. Activity (U/mL)=[−(ΔODTEST−ΔODBLANK)×3.0×dilution scale]/(16.3×0.1×1.0) In the above formula, 3.0 represents a liquid amount (mL) of the reaction reagent+the enzyme solution, 16.3 represents a millimolar molecular absorbance coefficient (cm^2/μmol) in the condition for measuring this enzyme, 0.1 represents the liquid amount of the enzyme solution (mL) and 1.0 represents a light path length (cm) of the cell.” for “D-glucose.”
The study was performed using the recombinant FAD-GDH preparation (rAO-FAD-GDH) derived from Aspergillus oryzae obtained in Example 1 in accordance with the method for measuring the FAD-GDH activity in Test Example 1 above. The amount of the protein which occupied in the FAD-GDH enzyme solution was measured, and 1 mL of the solution in which the stabilizing agent corresponding to 60% or 30% relative to this had been dissolved therein was prepared.
Several vials in which 0.2 mL of the enzyme solution containing each stabilizing agent had been correctly dispensed were prepared. As the control, the vials in which the stabilizing agent had not been added was prepared. The prepared vials were subjected to vacuum freeze-dry (FDR) to completely evaporate the water. Then, only two samples in which the same stabilizing agent had been added were subjected to the measurement of the activity. Meanwhile, the remaining vials were treated at 25° C. at a humidity of 70% for several hours, and then stored at 37° C. for one week. Subsequently, the residual activity was measured. The residual activity ratio (%) was calculated by making the average activity immediately after FDR 100% and measuring the average activity of the samples after storing at 37° C.

[5] = Table 4, each stabilizer at final concentration 1%, alone or in pairs

Compound	GDH Residual activity ratio (%) after treatment at 50° C., 30 min [1, 5] [%]	Residual activity ratio (%) [2] [%]	GLD activity value (U/ml) 50° C., 15 min [2] [U/ml]	thermal stabilization effect on FAD-GDH (in words) [2]	thermal stabilization effect on FAD-GDH (in words) [3]	Residual activity ratio (%) after treatment at 50° C., 15 min [3] [%]	storage stabilization effect on the powdered enzyme (in words) ([4]; Example 8, Tables 7 and 8)	GDH activity (U/vial) Immediately after pulverization ([4]; Table 8, stabilizer 60%) [U/vial]	GDH activity (U/vial) Immediately before pulverization ([4]; Table 8, stabilizer 60%) [U/vial]	GDH activity Residual ratio (%) ([4]; Table 8, stabilizer 60%, 70% humidity, 25° C., 7 h, then 37° C. for 1 week)	GDH activity (U/vial) At 37° C. for 1 week ([4]; Table 8, stabilizer 60%, after treatment at 70% humidity, 25° C., 7 h, then 37° C. for 1 week) [U/vial]	GDH Residual activity ratio (%) after treatment at 50° C., 30 min ([1]; final concentration 0.01%) [%]	GDH Residual activity ratio (%) after treatment at 50° C., 30 min ([1]; final concentration 0.1%) [%]	GDH Residual activity ratio (%) after treatment at 50° C., 30 min ([1]; final concentration 1%) [%]	thermal stabilization effect of trehalose (in words) ([1]; final concentration of 0.01%, 50° C., 30 min)
O=C[C@@H](O)[C@@H](O)[C@H](O)[C@H](O)CO [D-(+)-mannose]	47.78	16.5	0.448	high effect	high effect	65.3	–	–	–	–	–	–	–	–	–
O.O.OC[C@H]1O[C@H](O[C@H]2O[C@H](CO)[C@@H](O)[C@H](O)[C@H]2O)[C@H](O)[C@@H](O)[C@@H]1O [D-(+)-trehalosedihydrate]	39.10	15.8	0.431	high effect	high effect	64.7	enhance the stability	401	397	48.6	195	11.2	20.4	42.3	the stabilization effect was exerted
NCC(=O)O [Glycine]	4.84	3.3	0.094	high effect	high effect	26.4	–	–	–	–	–	–	–	–	–
